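Briefly, cells in 96-well plates were exposed to five compound concentrations for 48 h, and endpoints were estimated by linear interpolation. Abbreviation: GI50, concentration required for 50% inhibition of growth. TGI denotes the concentration required for complete inhibition of growth.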
What was measured:
Test in all cases: NCI tumour cell line growth inhibition, 48 h
[1] = system: U251 CNS
[2] = system: OVCAR-4 ovarian
[3] = system: CAKI-1 renal
[4] = system: MOLT-4 leukemia
[5] = system: ACHN renal
[6] = system: SK-OV-3 ovarian
[7] = system: NCI-H23 lung
[8] = system: NCI-H522 lung
[9] = system: A498 renal

SMILES | TGI [1] [µM] | TGI [2] [µM] | TGI [3] [µM] | TGI [4] [µM] | TGI [5] [µM] | TGI [6] [µM] | TGI [7] [µM] | TGI [8] [µM] | TGI [9] [µM] | GI50 [1] [µM] | GI50 [2] [µM] | GI50 [9] [µM] | GI50 [3] [µM] | GI50 [5] [µM] | GI50 [6] [µM] | GI50 [7] [µM] | GI50 [4] [µM] | GI50 [8] [µM]
COc1cc(/C=C/C(=N\NC(=O)c2ccccc2)c2sc(Nc3ccc(Cl)c(Cl)c3)nc2C)ccc1O | 88.9 | > 100 | > 100 | 66.6 | 87.2 | > 100 | 77.3 | 47.6 | – | – | – | – | – | – | – | – | – | –
CCOc1cccc2nc3cccc(C(=O)NCCN(C)C)c3nc12 | 9.26 | 8.58 | – | 0.746 | 3.01 | > 35.4 | 4.45 | > 100 | 2.26 | – | – | – | – | – | – | – | – | –
CCOC(=O)Cc1nc(/C(C#N)=C/c2ccco2)[nH]c(=O)c1C#N | > 100 | > 100 | > 100 | > 100 | > 100 | > 100 | > 100 | > 100 | – | – | – | – | – | – | – | – | – | –
N#Cc1c(N)c(C(=O)O)nn(-c2cccc(C(F)(F)F)c2)c1=O | > 100 | – | > 100 | > 100 | > 100 | > 100 | > 100 | > 100 | > 100 | – | – | – | – | – | – | – | – | –
NC(CCSCC(F)F)C(=O)O (configuration not stated) | > 100 | > 100 | > 100 | > 100 | > 100 | – | > 100 | > 100 | > 100 | – | – | – | – | – | – | – | – | –
Cc1cc(C)nc(NS(=O)(=O)c2ccc(Nc3c4ccccc4nc4c(C(=O)N5CCN(CCOS(C)(=O)=O)CC5)ccc(Cl)c34)cc2)n1 | > 100 | > 100 | > 100 | > 100 | > 100 | > 100 | > 100 | – | > 100 | – | – | – | – | – | – | – | – | –
COc1ccc(C2=NC(C)(C)CO2)cc1 | > 100 | > 100 | > 100 | – | > 100 | – | > 100 | – | > 100 | – | – | – | – | – | – | – | – | –
COC(=O)/C(=N\NC(=S)NN)C(C(=O)C(=O)Nc1ccccc1C(N)=O)c1nc2ccccc2[nH]c1=O (configuration not stated) | > 100 | > 100 | > 100 | > 100 | > 100 | – | > 100 | > 100 | – | – | – | – | – | – | – | – | – | –
N#CC(C#N)=Cc1cccc(Oc2ccccc2)c1 | 18.9 | – | 50.4 | 78.7 | 34.1 | > 100 | 22 | 51.2 | > 100 | – | – | – | – | – | – | – | – | –
O=C1N[C@@H](O)[C@@H]2ON=C(c3ccccc3)[C@H]12 | > 100 | > 100 | > 100 | > 100 | > 100 | > 100 | > 100 | – | > 100 | – | – | – | – | – | – | – | – | –
CN1CCN(C)C1c1cccc(C2N(C)CCN2C)c1 | > 100 | > 100 | – | > 100 | > 100 | > 100 | > 100 | > 100 | > 100 | – | – | – | – | – | – | – | – | –
CC/C=C\C/C=C\C1CC(=O)NCCCNCCCCN1 (configuration not stated) | > 100 | > 100 | > 100 | – | – | – | > 100 | > 100 | – | – | – | – | – | – | – | – | – | –
Cc1ncc([N+](=O)[O-])n1CCNC(=O)CCCCn1ccnc1[N+](=O)[O-] | > 100 | – | > 100 | > 100 | > 100 | > 100 | > 100 | > 100 | > 100 | – | – | – | – | – | – | – | – | –
c1cc[c]([Sn]([S]c2cccc3cccnc23)([c]2ccccc2)[c]2ccccc2)cc1 | 0.11 | 0.0644 | 0.0421 | – | 0.116 | 0.356 | 0.175 | – | 0.346 | 0.0347 | 0.0171 | 0.152 | 0.0114 | 0.0335 | 0.107 | 0.0305 | – | –
Clc1ccc(CNc2nc3ccccc3nc2-c2cccs2)c(Cl)c1 | > 100 | – | – | > 100 | > 100 | – | > 100 | – | – | – | – | – | – | – | – | – | – | –
C=C(COC(C)=O)CC(/C=C(\C)CCC=C(C)C)OC(C)=O (configuration not stated) | > 100 | > 100 | – | > 100 | > 100 | > 100 | > 100 | > 100 | > 100 | – | – | – | – | – | – | – | – | –
CC(O)CN1C(=O)NC(Cc2ccccc2)C1=O (configuration not stated) | > 100 | – | > 100 | – | > 100 | – | > 100 | > 100 | – | – | – | – | – | – | – | – | – | –
Cc1ccc(-c2nc(C(Cl)Cl)n3nc(-c4ccccc4)cc3n2)cc1 | 1.53 | 3.99 | 1.49 | > 100 | 0.93 | > 100 | > 100 | > 100 | – | 0.322 | 0.68 | – | 0.31 | 0.302 | 2.56 | 1.17 | > 100 | > 100
CC(=O)OCCOCBr | > 100 | > 100 | > 100 | – | > 100 | > 100 | – | > 100 | > 100 | – | – | – | – | – | – | – | – | –
NC1=NC(=O)C(CC(=O)Nc2ccc([N+](=O)[O-])cc2[N+](=O)[O-])S1 (configuration not stated) | > 100 | > 100 | – | > 100 | > 100 | – | > 100 | – | – | – | – | – | – | – | – | – | – | –

From PubChem BioAssay (NCI)
